In patent US20190137505A1 (THE ARIZONA BOARD OF REGENTS ON BEHALF OF THE UNIVERSITY OF …, priority 2015, published 2019):

Assays:
Pg = biological target: T1, Pg (Homo sapiens, UniProt P00747); experiment: Two-dimensional gel electrophoresis of MG-modified Pg (isoelectric point shift); format: physicochemical; details: 24-hr 500 μM MG; 4-7 pH isoelectric focusing strip
T1 construct: Glu-Pg, uPA, tPA, fibrinogen, and chromogenic substrate for Pn were purchased from Molecular Innovations (Novi, Mich.); purchased Molecular Innovations (Novi, Mich.)
Method: 10 μg Pg was incubated with MG (50-500 μM) in tris-buffered saline (TBS) for 24 hours at 37° C. Following modification, sample volumes were increased to 150 μL and placed in 5 kDa spin filters to reduce volume and remove excess MG from solution.
MG-modified (500 μM) and unmodified Pg control (same incubation conditions without MG) were added to 250 μL amount of rehydration buffer (6M urea, 2M thiourea, 2% CHAPS, 100 mM DTT, 0.5% 3-10 ampholytes) and 5 μL of 3-10 ampholytes (Bio-Rad). Sample rehydrated with a 13 cm 4-7 pH isoelectric focusing strip (GE Healthcare) overnight. Following rehydration, strips were placed in a Bio-Rad PROTEAN IEF Cell focusing instrument. Strips were first focused for 1 hour at 500 V, and then run at a maximum of 8,000V until the strips have reached a final total of 45,000 V/hrs at which point gels are held at 500V until removed. Focused strips were removed, reduced with DTT, cysteines carbamidomethylated with iodoacetamide, and run on a 4-20% gradient Criterion gel for 55 minutes at 200V. Gels were stained for stained according to manufacturer instructions with Imperial Blue Protein (ThermoScientific, Rockford, Ill.) and destained immediately with water. Gel bands were excised and trypsin digested.

HSA drug site I = biological target: T2, HSA drug site I (Homo sapiens, UniProt P02768); experiment: Prodan displacement assay; format: binding; details: prodan-HSA 75 μM; 30 min; fluorescence 465 nm emission
T2 construct: purchased Sigma-Aldrich A3782
Method: A solution of human serum albumin (HSA) (20 ml at 10 mg/ml) in 1×PBS pH 7.4 was prepared. A slurry (10 ml) of Lipidex-1000 in methanol was buffer exchanged into 1×PBS and the buffer decanted from the aqueous slurry. The HSA solution was added to the slurry and the mixture was rotated at room temperature for 30 min. The Lipidex slurry was completely removed from HSA by plunging through a 0.22 μm filter using a 60 ml syringe. Prodan (25 mg) was dissolved in of 40% ethanol, 60% methanol (5 ml at a final concentration is 5 mg/ml). A portion (10 ml) of delipidated HSA (10 mg/ml) was incubated with 666.7 μl of the prodan solution (1:10 molar ratio HSA:prodan), and this mixture was rotated at room temperature for 30 minutes. The HSA-prodan mixture was placed on dry ice and acetone precipitated by adding 40 ml of acetone at −20° C., which was mixed and centrifuged at 3000×g for 10 min to pellet the precipitated HSA-prodan. Two additional washes of cold acetone were used to remove any free prodan. The HSA pellet was brought to 10 ml with PBS and mixed and resuspended.
A 2-fold serial dilution of MG in 1×PBS pH 7.4 was prepared starting from a stock solution of 10 mM. […] An aliquot (300 μl) of each reaction was read using a Gemini XPS Fluorescence Microplate Reader (Molecular Devices) in endpoint mode with 360 nm excitation, 420 nm filter cut-off, and 465 nm emission.

glu-Pg = biological target: T3, glu-Pg (Homo sapiens, UniProt P00747); experiment: Reaction of MG-modified Pg with activating enzymes (STK, tPA, uPA), SDS-PAGE and silver staining; format: biochemical; details: for Pn heavy and light chain bands versus unmodified gel: MG-modified Pg, higher concentration of MG, up to 90 minutes
T3 construct: Glu-Pg, uPA, tPA, fibrinogen, and chromogenic substrate for Pn were purchased from Molecular Innovations (Novi, Mich.); purchased Molecular Innovations (Novi, Mich.)
Method: Physiologically relevant concentrations (Chaplen et al., 1998, Ahmed et al., 2002) of MG were utilized for all LC-MS/MS, silver stain and enzyme inhibition analyses of Pg. glu-Pg (10 μg) was incubated with MG (1-500 μM) at 37° C. for 24 Hrs. Samples for STK assay were further processed before being resolved on a 12% SDS-PAGE gel following removal from 37° C. oven.
Upon removal from the 37° C. oven, Pg was buffer exchanged in a 3-kDa spin-filter (Amicon YM-3; Millipore)) to ensure the removal of MG from the sample. Following centrifugation, the volume of each sample was brought to 150 μL, and divided into five 30 μL samples for different incubations. STK (3U), tPA (100 nM) or uPA (100 nM) was used per sample. STK, tPA or uPA was incubated with Pg for 0, 5, 15, 30, 60, or 90 min. At the conclusion of the enzyme incubation, samples were denatured with 5% BME and heated for 5 minutes at 100° C. on a heat block prior to being resolved on a 12% SDS-PAGE gel.
Gels were stained using a modified version of the method from (Blum et al., 1987). Gel was fixed overnight in a solution of 50% MeOH, 12% glacial acetic acid, and 0.0185% formaldehyde. The gel was washed 2×20 min with 50% EtOH followed by 20 minutes with 30% EtOH. The gel was subjected to a pretreatment solution of 0.2 mg/ml of sodium thiosulfate (Na2S2O3) for 1 minute and was rinsed 3×20 sec with MilliQ H2O. […] Following two 20-second MilliQ H2O washes, the gel was immediately developed with a solution of 60 mg/ml Na2CO3, 4 μg/ml sodium thiosulfate, and 0.0185% formaldehyde until protein bands were visible. Upon acceptable staining progression, the gel was rinsed twice for 2 min with MilliQ H2O before the reaction was stopped with a solution of 50% MeOH and 12% glacial acetic acid. Gel was washed and stored in 50% MeOH. Gel was imaged with a ChemiDoc XRS System (BioRad).

T3 sequence (P00747 20-810 limits assumed): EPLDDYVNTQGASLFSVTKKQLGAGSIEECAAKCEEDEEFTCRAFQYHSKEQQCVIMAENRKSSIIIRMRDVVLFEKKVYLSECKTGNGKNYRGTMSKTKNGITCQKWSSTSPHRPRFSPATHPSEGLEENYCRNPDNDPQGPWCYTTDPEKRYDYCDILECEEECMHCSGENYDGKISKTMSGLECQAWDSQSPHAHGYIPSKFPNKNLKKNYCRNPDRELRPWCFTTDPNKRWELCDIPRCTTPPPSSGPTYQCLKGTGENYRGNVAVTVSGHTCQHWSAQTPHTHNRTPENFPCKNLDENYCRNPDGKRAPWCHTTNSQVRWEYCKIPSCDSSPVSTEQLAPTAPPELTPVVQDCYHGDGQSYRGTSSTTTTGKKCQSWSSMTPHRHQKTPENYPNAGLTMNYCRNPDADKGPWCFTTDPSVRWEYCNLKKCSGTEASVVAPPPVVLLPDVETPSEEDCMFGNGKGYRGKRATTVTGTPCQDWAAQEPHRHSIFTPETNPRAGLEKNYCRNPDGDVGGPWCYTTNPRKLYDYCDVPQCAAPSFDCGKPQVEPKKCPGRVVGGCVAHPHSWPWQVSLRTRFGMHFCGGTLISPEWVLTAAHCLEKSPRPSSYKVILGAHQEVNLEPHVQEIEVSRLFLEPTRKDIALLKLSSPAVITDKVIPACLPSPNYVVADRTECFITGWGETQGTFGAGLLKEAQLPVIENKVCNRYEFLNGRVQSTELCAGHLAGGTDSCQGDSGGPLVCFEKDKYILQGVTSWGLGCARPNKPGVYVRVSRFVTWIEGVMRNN
T1 sequence (P00747 20-810 limits assumed): as above
T2 sequence (P02768 25-609): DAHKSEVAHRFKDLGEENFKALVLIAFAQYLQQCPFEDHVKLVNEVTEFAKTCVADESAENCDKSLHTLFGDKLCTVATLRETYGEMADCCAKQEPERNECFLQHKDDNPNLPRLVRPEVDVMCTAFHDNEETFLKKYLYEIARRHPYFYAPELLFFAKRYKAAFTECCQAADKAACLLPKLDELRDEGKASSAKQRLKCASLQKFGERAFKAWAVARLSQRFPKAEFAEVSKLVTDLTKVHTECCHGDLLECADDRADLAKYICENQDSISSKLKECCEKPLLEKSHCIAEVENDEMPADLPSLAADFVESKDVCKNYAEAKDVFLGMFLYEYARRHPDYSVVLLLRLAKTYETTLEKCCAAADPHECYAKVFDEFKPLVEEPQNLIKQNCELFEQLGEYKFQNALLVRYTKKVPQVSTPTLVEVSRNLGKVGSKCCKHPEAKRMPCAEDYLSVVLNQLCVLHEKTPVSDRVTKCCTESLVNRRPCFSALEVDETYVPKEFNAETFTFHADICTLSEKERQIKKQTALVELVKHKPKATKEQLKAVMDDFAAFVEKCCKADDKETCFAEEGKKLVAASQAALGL

CC(=O)C=O [MG, Methylglyoxal]
pI of MG-modified Pg (Pg): 5.8-6.7 | MG concentrations that displace prodan from prodan-HSA complex (HSA drug site I): above 300 μM | Activation of Pg by STK (cleavage products on silver-stained gel) (glu-Pg; 24-hr 100 μM MG-modified glu-Pg, STK 0 to 60 min): inhibited | Pn heavy and light chain bands versus unmodified gel (glu-Pg; tPA): lesser amounts | Pn heavy and light chain bands versus unmodified gel (glu-Pg; uPA): lesser amounts
